Measurements reported in US11377442B2, “Small molecule agonists and antagonists of NR2F6 activity” (ZANDER THERAPEUTICS, INC., priority 2016, dated 2022).

Biological target: T1, NR2F6 (Homo sapiens, UniProt P10588)
T1 construct: expressed in transfected cells; also transient transfection
T1 sequence (P10588 1-404): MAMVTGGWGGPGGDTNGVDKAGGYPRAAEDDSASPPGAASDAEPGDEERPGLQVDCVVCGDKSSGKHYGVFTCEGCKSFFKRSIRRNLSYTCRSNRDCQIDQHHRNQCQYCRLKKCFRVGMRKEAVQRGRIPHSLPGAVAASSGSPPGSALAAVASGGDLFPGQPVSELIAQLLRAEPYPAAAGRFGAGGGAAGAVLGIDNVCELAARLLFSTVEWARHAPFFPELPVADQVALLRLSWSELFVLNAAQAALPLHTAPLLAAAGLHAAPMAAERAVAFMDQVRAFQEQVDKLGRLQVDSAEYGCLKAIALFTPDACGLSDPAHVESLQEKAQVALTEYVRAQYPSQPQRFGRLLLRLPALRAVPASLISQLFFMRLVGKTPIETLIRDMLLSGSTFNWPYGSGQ
Experiment: NR2F6 agonist screening, Firefly signal cmpd/DMSO
Type: cell-based

[1] = C11 analogs follow set (Tables 2-10)

SMILES: Cc1cc(S(=O)(=O)c2cc3cc(Br)ccc3oc2=O)ccc1F [Compound C223]
- Firefly, cmpd/DMSO repeat 1 [1]: 4.5
- Firefly, cmpd/DMSO repeat 2 [1]: 5.1

SMILES: Cc1cc(S(=O)(=O)c2cc3cc(Cl)ccc3oc2=O)ccc1F [Compound C224]
- Firefly, cmpd/DMSO repeat 1 [1]: 6.6
- Firefly, cmpd/DMSO repeat 2 [1]: 11.4

SMILES: COc1ccc2oc(=O)c(S(=O)(=O)c3ccc(F)c(C)c3)cc2c1 [Compound C225]
- Firefly, cmpd/DMSO repeat 1 [1]: 1.5
- Firefly, cmpd/DMSO repeat 2 [1]: 3.1

SMILES: COc1cccc(S(=O)(=O)c2cc3cccc(OC)c3oc2=O)c1 [Compound C226]
- Firefly, cmpd/DMSO repeat 1 (Table 9): 1.1
- Firefly, cmpd/DMSO repeat 2 (Table 9): 1.0

SMILES: COc1cccc2cc(S(=O)(=O)c3cc(C)cc(C)c3)c(=O)oc12 [Compound C227]
- Firefly, cmpd/DMSO repeat 1 (Table 9): 1.0
- Firefly, cmpd/DMSO repeat 2 (Table 9): 1.3

SMILES: COc1cccc2cc(S(=O)(=O)c3ccc(C)c(Cl)c3)c(=O)oc12 [Compound C228]
- Firefly, cmpd/DMSO repeat 1 (Table 9): 1.0
- Firefly, cmpd/DMSO repeat 2 (Table 9): 1.3

SMILES: COc1cccc2cc(S(=O)(=O)c3cc(F)cc(F)c3)c(=O)oc12 [Compound C229]
- Firefly, cmpd/DMSO repeat 1 (Table 9): 2.9
- Firefly, cmpd/DMSO repeat 2 (Table 9): 1.8

SMILES: CCOc1cccc2cc(S(=O)(=O)c3cc(F)cc(F)c3)c(=O)oc12 [Compound C230]
- Firefly, cmpd/DMSO repeat 1 (Table 9): 12.5
- Firefly, cmpd/DMSO repeat 2 (Table 9): 8.3
- Firefly/Renilla (NR2F6 stable, clone F4) (Table 12, ratio Firefly/Renilla, NR2F6 stable clone F4): 2.5
- Firefly, NR2F6 stable (clone F4)/pGL4 (Table 12, ratio of Firefly in NR2F6 stable clone F4 to pGL4): 6.5
- Firefly, cmpd/DMSO repeat 1 (Table 12): 12.5
- Firefly, cmpd/DMSO repeat 2 (Table 12): 8.3

SMILES: COc1cccc2cc(S(=O)(=O)c3ccc(C)cc3)c(=O)oc12 [Compound C231]
- Firefly, cmpd/DMSO repeat 1 (Table 9): 0.7
- Firefly, cmpd/DMSO repeat 2 (Table 9): 0.9

SMILES: COc1ccc(S(=O)(=O)c2cc3cccc(OC)c3oc2=O)cc1 [Compound C232]
- Firefly, cmpd/DMSO repeat 1 (Table 9): 1.0
- Firefly, cmpd/DMSO repeat 2 (Table 9): 0.9

SMILES: COc1cccc2cc(S(=O)(=O)c3ccc(Br)cc3)c(=O)oc12 [Compound C233]
- Firefly, cmpd/DMSO repeat 1 (Table 9): 2.8
- Firefly, cmpd/DMSO repeat 2 (Table 9): 2.1

SMILES: COc1cccc2cc(S(=O)(=O)c3ccc(C(C)(C)C)cc3)c(=O)oc12 [Compound C234]
- Firefly, cmpd/DMSO repeat 1 (Table 9): 2.2
- Firefly, cmpd/DMSO repeat 2 (Table 9): 1.8

SMILES: CCOc1cccc2cc(S(=O)(=O)c3ccc(C)cc3)c(=O)oc12 [Compound C236]
- Firefly, cmpd/DMSO repeat 1 (Table 9): 4.4
- Firefly, cmpd/DMSO repeat 2 (Table 9): 4.9

SMILES: CCOc1cccc2cc(S(=O)(=O)c3ccc(F)cc3)c(=O)oc12 [Compound C237]
- Firefly, cmpd/DMSO repeat 1 (Table 9): 3.5
- Firefly, cmpd/DMSO repeat 2 (Table 9): 2.9

SMILES: CCOc1cccc2cc(S(=O)(=O)c3ccc(Br)cc3)c(=O)oc12 [Compound C239]
- Firefly, cmpd/DMSO repeat 1 (Table 9): 1.4
- Firefly, cmpd/DMSO repeat 2 (Table 9): 2.2

SMILES: CCOc1cccc2cc(S(=O)(=O)c3ccc(C(C)(C)C)cc3)c(=O)oc12 [Compound C240]
- Firefly, cmpd/DMSO repeat 1 (Table 9): 1.5
- Firefly, cmpd/DMSO repeat 2 (Table 9): 0.9

SMILES: COc1cccc2cc(S(=O)(=O)c3ccc(C(C)C)cc3)c(=O)oc12 [Compound C241]
- Firefly, cmpd/DMSO repeat 1 (Table 9): 2.1
- Firefly, cmpd/DMSO repeat 2 (Table 9): 2.7

SMILES: COc1cccc2cc(S(=O)(=O)c3ccc(C)c(C)c3)c(=O)oc12 [Compound C242]
- Firefly, cmpd/DMSO repeat 1 (Table 9): 1.1
- Firefly, cmpd/DMSO repeat 2 (Table 9): 1.1

SMILES: CCOc1cccc2cc(S(=O)(=O)c3ccc(C)c(C)c3)c(=O)oc12 [Compound C243]
- Firefly, cmpd/DMSO repeat 1 (Table 9): 2.0
- Firefly, cmpd/DMSO repeat 2 (Table 9): 3.3

SMILES: CCOc1cccc2cc(S(=O)(=O)c3ccc(Cl)cc3)c(=O)oc12 [Compound C244]
- Firefly, cmpd/DMSO repeat 1 (Table 9): 9.7
- Firefly, cmpd/DMSO repeat 2 (Table 9): 14.1
